Experimental findings from patent publication US20090111798A1, “5,6-DIHYDRO-1H-PYRIDIN-2-ONE COMPOUNDS” (priority 2006, published 2009) are described below.

Molecules are shown by their SMILES. pIC50: −log10 of the molar value. Counter-ions that a name gives are not always drawn.

Sequence of NS5B polymerase (P26663 2420-3010): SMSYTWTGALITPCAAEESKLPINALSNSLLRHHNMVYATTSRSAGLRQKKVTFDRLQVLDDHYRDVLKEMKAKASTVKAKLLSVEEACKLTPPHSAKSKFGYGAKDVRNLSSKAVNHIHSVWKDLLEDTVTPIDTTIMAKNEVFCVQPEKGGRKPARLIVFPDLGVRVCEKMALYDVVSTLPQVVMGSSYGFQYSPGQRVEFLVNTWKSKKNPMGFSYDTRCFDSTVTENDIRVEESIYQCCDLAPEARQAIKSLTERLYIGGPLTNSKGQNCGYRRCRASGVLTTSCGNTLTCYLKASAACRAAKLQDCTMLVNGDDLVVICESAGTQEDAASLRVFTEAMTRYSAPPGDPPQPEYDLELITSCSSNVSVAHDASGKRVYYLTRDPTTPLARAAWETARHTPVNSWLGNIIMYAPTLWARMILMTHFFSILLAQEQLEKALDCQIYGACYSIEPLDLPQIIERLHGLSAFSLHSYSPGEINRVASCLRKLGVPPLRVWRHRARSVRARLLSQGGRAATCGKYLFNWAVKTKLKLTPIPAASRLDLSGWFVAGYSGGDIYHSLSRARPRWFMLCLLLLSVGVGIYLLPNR

This experiment concerns the target NS5B polymerase (Hepatitis C virus genotype 1b, UniProt P26663). In words: biochemical. As to conditions: NS5B polymerase inhibition; 20 nM enzyme, 75 min at 28° C. Summed up:
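20 nM enzyme with 250 nM biotinylated oligo(rG13)/poly rC, 0.6 μM GTP plus [α-33P]GTP, in pH 7.5 Tris buffer with 5 mM MgCl2, 75 min at 28 °C. Incorporated radioactivity counted on streptavidin plates; IC50 from 4-parameter fit versus uninhibited control.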
For `CS(=O)(=O)Nc1ccc2c(c1)S(=O)(=O)N=C(C1=C(O)[C@@H]3CCC[C@@H]3N(CC3CC3)C1=O)N2` [Example 30, (4aR,7aS)—N-[3-(1-Cyclopropylmethyl-4-hydroxy-2-oxo-2,4-a,5,6,7,7a-hexahydro-1H-[1]pyrindin-3-yl)-1,1-dioxo-1,4-dihydro-1λ^6-benzo[1,2,4]thiadiazin-7-yl]-methanesulfonamide], the pIC50 was 6.00 to 7.00. The figure for `CS(=O)(=O)Nc1ccc2c(c1)S(=O)(=O)N=C(C1=C(O)[C@H]3CCCC[C@H]3N(Cc3ccc(F)cc3)C1=O)N2` [Example 31, (4aS, 8aR)—N-{3-[1-(4-Fluoro-benzyl)-4-hydroxy-2-oxo-1,2,4a,5,6,7,8,8a-octahydro-quinolin-3-yl]-1,1-dioxo-1,4-dihydro-1λ^6 benzo[1,2,4]thiadiazin-7-yl]-methanesulfonamide] is 7.00 to 7.70; for `CC(C)(C)CCN1C(=O)C(C2=NS(=O)(=O)c3cc(NS(C)(=O)=O)ccc3N2)=C(O)C2CCCCCC21` (centres unmarked) [Example 32, N-{3-[1-(3,3-Dimethyl-butyl)-4-hydroxy-2-oxo-2,4-a,5,6,7,8,9,9a-octahydro-1H-cyclohepta[b]pyridin-3-yl]-1,1-dioxo-1,4-dihydro-1λ^6-benzo[1,2,4]thiadiazin-7-yl]-methanesulfonamide] it is 7.00 to 7.70. For the compound `CC(C)CCN1C(=O)C(C2=NS(=O)(=O)c3cc(NS(C)(=O)=O)ccc3N2)=C(O)C2CCCCCC21` (centres unmarked) [Example 33, N-{3-[4-Hydroxy-1-(3-methyl-butyl)-2-oxo-2,4-a,5,6,7,8,9,9a-octahydro-1H-cyclohepta[b]pyridin-3-yl]-1,1-dioxo-1,4-dihydro-1λ^6-benzo[1,2,4]thiadiazin-7-yl}-methanesulfonamide], the pIC50 is 7.00 to 7.70. With `CC(C)CCN1C(=O)C(C2=NS(=O)(=O)c3cc(N(C)S(C)(=O)=O)ccc3N2)=C(O)C2CCCCCC21` (centres unmarked) [Example 34, N-{3-[4-Hydroxy-1-(3-methyl-butyl)-2-oxo-2,4-a,5,6,7,8,9,9a-octahydro-1H-cyclohepta[b]pyridin-3-yl]-1,1-dioxo-1,4-dihydro-1λ^6-benzo[1,2,4]thiadiazin-7-yl}-N-methyl-methanesulfonamide] the figure was 6.00 to 7.00; with `CC(C)(C)CCN1C(=O)C(C2=NS(=O)(=O)c3cc(NS(C)(=O)=O)ccc3N2)=C(O)C2CCCCCCC21` (centres unmarked) [Example 35, N-{3-[1-(3,3-Dimethyl-butyl)-4-hydroxy-2-oxo-1,2,4a,5,6,7,8,9,10,10a-decahydro-cycloocta[b]pyridin-3-yl]-1,1-dioxo-1,4-dihydro-1λ^6-benzo[1,2,4]thiadiazin-7-yl]-methanesulfonamide], 4.00 to 6.00. With `CN(c1ccc2c(c1)S(=O)(=O)N=C(C1=C(O)C3CCCCCCC3N(CCC(C)(C)C)C1=O)N2)S(C)(=O)=O` (centres unmarked) [Example 36, N-{3-[1-(3,3-Dimethyl-butyl)-4-hydroxy-2-oxo-1,2,4a,5,6,7,8,9,10,10a-decahydro-cycloocta[b]pyridin-3-yl]-1,1-dioxo-1,4-dihydro-1λ^6-benzo[1,2,4]thiadiazin-7-yl]-N-methyl-methanesulfonamide] the figure was 4.00 to 6.00; with `O=C1C(C2=NS(=O)(=O)c3cc(I)ccc3N2)=C(O)[C@@H]2CCC[C@@H]2N1Cc1ccc(F)cc1` [Example 39, (4aR,7aS)-1-(4-Fluoro-benzyl)-4-hydroxy-3-(7-iodo-1,1-dioxo-1,4-dihydro-1λ^6-benzo[1,2,4]thiadiazin-3-yl)-1,4-a,5,6,7,7a-hexahydro-[1]pyrindin-2-one], 4.00 to 6.00. Compound `O=C1C(C2=NS(=O)(=O)c3cc(NS(=O)(=O)c4ccccc4)ccc3N2)=C(O)[C@@H]2CCC[C@@H]2N1Cc1ccc(F)cc1` [Example 40, (4aR,7aS)—N-{3-[1-(4-Fluoro-benzyl)-4-hydroxy-2-oxo-2,4-a,5,6,7,7a-hexahydro-1H-[1]pyrindin-3-yl]-1,1-dioxo-1,4-dihydro-1λ^6-benzo[1,2,4]thiadiazin-7-yl]-benzenesulfonamide] showed a negative-log IC50 (pIC50) of 7.00 to 7.70. Take `O=C1C(C2=NS(=O)(=O)c3cc(N4CCCCC4)ccc3N2)=C(O)[C@@H]2CCC[C@@H]2N1Cc1ccc(F)cc1` [Example 42, (4aR,7aS)-3-(1,1-Dioxo-7-piperidin-1-yl-1,4-dihydro-1λ^6-benzo[1,2,4]thiadiazin-3-yl)-1-(4-fluoro-benzyl)-4-hydroxy-1,4-a,5,6,7,7a-hexahydro-[1]pyrindin-2-one]: the pIC50 is 4.00 to 6.00. With `O=C1C(C2=NS(=O)(=O)c3cc(C4=CCCS4(=O)=O)ccc3N2)=C(O)[C@@H]2CCC[C@@H]2N1Cc1ccc(F)cc1` [Example 44, (4aR,7aS)-3-[7-(1,1-Dioxo-4,5-dihydro-1H-1λ^6-thiophen-2-yl)-1,1-dioxo-1,4-dihydro-1λ^6-benzo[1,2,4]thiadiazin-3-yl]-1-(4-fluoro-benzyl)-4-hydroxy-1,4a,5,6,7,7a-hexahydro-[1]pyrindin-2-one] the figure was 6.00 to 7.00. On to `O=C1C(C2=NS(=O)(=O)c3cc(I)ccc3N2)=C(O)C2CCCCCC2N1Cc1ccc(F)cc1` (centres unmarked) [Example 46, 1-(4-Fluoro-benzyl)-4-hydroxy-3-(7-iodo-1,1-dioxo-1,4-dihydro-1λ^6-benzo[1,2,4]thiadiazin-3-yl)-1,4-a,5,6,7,8,9,9a-octahydro-cyclohepta[b]pyridin-2-one], for which the pIC50 was 4.00 to 6.00. With `CS(=O)(=O)Nc1ccc2c(c1)S(=O)(=O)N=C(C1=C(O)C3CCCCC3N(C3CCCCC3)C1=O)N2` (centres unmarked) [Example 49, N-[3-(1-Cyclohexyl-4-hydroxy-2-oxo-1,2,4a,5,6,7,8,8a-octahydro-quinolin-3-yl)-1,1-dioxo-1,4-dihydro-1λ^6-benzo[1,2,4]thiadiazin-7-yl]-methanesulfonamide] the figure was 6.00 to 7.00. In turn, `O=C1C(C2=NS(=O)(=O)c3cc(I)ccc3N2)=C(O)C2CCCCC2N1Cc1ccc(F)cc1` (centres unmarked) [Example 50, 1-(4-Fluoro-benzyl)-4-hydroxy-3-(7-iodo-1,1-dioxo-1,4-dihydro-1λ^6-benzo[1,2,4]thiadiazin-3-yl)-4-a,5,6,7,8,8a-hexahydro-1H-quinolin-2-one] showed a pIC50 of 4.00 to 6.00. `O=C1C(C2=NS(=O)(=O)c3cc(NS(=O)(=O)Cc4ccccc4)ccc3N2)=C(O)[C@@H]2CCC[C@@H]2N1Cc1ccc(F)cc1` [Example 52, (4aR,7aS)-N-{3-[1-(4-Fluoro-benzyl)-4-hydroxy-2-oxo-2,4a,5,6,7,7a-hexahydro-1H-[1]pyrindin-3-yl]-1,1-dioxo-1,4-dihydro-1λ^6-benzo[1,2,4]thiadiazin-7-yl}-C-phenyl-methanesulfonamide] had a negative logarithm of the IC50 (pIC50) of 6.00 to 7.00. The figure for `CS(=O)(=O)Nc1ccc2c(c1)S(=O)(=O)N=C(C1=C(O)C3CCCCCC3NC1=O)N2` (centres unmarked) [Example 59, N-[3-(4-Hydroxy-2-oxo-2,4a,5,6,7,8,9,9a-octahydro-1H-cyclohepta[b]pyridin-3-yl)-1,1-dioxo-1,4-dihydro-1λ^6-benzo[1,2,4]thiadiazin-7-yl]-methanesulfonamide] is 4.00 to 6.00. With `CS(=O)(=O)Nc1ccc2c(c1)S(=O)(=O)N=C(C1=C(O)C3CCCCCC3N(NC3CCC3)C1=O)N2` (centres unmarked) [Example 60, N-[3-(1-Cyclobutylamino-4-hydroxy-2-oxo-2,4a,5,6,7,8,9,9a-octahydro-1H-cyclohepta[b]pyridin-3-yl)-1,1-dioxo-1,4-dihydro-1λ^6-benzo[1,2,4]thiadiazin-7-yl]-methanesulfonamide trifluoroaceticacid salt] the figure was 7.00 to 7.70.
